{"source": "ChEMBL document CHEMBL1151413", "about": "(J Nat Prod, 1983)", "key": {"[1]": {"test_system": "Ileum", "assay": "Inhibition of coaxially-induced guinea pig ileum contraction at 10 ug/ml", "format": "functional, tissue-based", "settings": "Cavia porcellus, TDE = time-dependent effect"}, "[2]": {"test_system": "Ileum", "assay": "Inhibition of acetylcholine-induced guinea pig ileum contraction assessed as residual activity at 5 ug/ml after 30 to 50 mins relative to control", "format": "functional, Cavia porcellus"}, "[3]": {"test_system": "Platelet", "assay": "Disaggregation activity against arachidonic acid-induced rabbit platelet aggregation at 10 ug/ml relative to arachidonic acid response", "format": "functional, cell-based", "settings": "Oryctolagus cuniculus"}, "[4]": {"test_system": "Ileum", "assay": "Inhibition of acetylcholine-induced guinea pig ileum contraction assessed as residual activity at 10 ug/ml after 30 to 50 mins relative to control", "format": "functional, Cavia porcellus"}, "[5]": {"test_system": "Platelet", "assay": "Antiaggregation activity against ADP-induced rabbit platelet aggregation at 10 ug/ml", "format": "functional, cell-based", "settings": "Oryctolagus cuniculus, TDE = time-dependent effect"}, "[6]": {"test_system": "Ileum", "assay": "Inhibition of acetylcholine-induced guinea pig ileum contraction at 10 ug/ml after 15 mins", "format": "functional, tissue-based", "settings": "Cavia porcellus"}, "[7]": {"test_system": "Ileum", "assay": "Inhibition of histamine-induced guinea pig ileum contraction", "settings": "Cavia porcellus, read-out: pA2 (converted)"}, "[8]": {"test_system": "Ileum", "assay": "Inhibition of acetylcholine-induced guinea pig ileum contraction", "format": "functional, tissue-based", "settings": "Cavia porcellus, TDE = time-dependent effect"}, "[9]": {"test_system": "Ileum", "assay": "Inhibition of BaCl2-induced guinea pig ileum contraction at 10 ug/ml after 15 mins", "format": "functional, tissue-based", "settings": "Cavia porcellus"}, "[10]": {"test_system": "Platelet", "assay": "Disaggregation activity against ADP-induced rabbit platelet aggregation at 10 ug/ml relative to ADP response", "format": "functional, cell-based", "settings": "Oryctolagus cuniculus"}, "[11]": {"test_system": "Ileum", "assay": "Inhibition of acetylcholine-induced guinea pig ileum contraction at 5 ug/ml after 15 mins", "format": "functional, tissue-based", "settings": "Cavia porcellus"}, "[12]": {"test_system": "Platelet", "assay": "Antiaggregation activity against arachidonic acid-induced rabbit platelet aggregation at 10 ug/ml", "format": "functional, cell-based", "settings": "Oryctolagus cuniculus, TDE = time-dependent effect"}}, "note": "Activity calls are given as the source filed them. The rule behind the calls is not given here."}
{"smiles": "C=C[C@@]12COC(=O)C(=C)[C@@H]1[C@H]1OC(=O)C(=C)[C@@H]1[C@@H](O)C2", "note": "[VERNOLEPIN]", "values": [{"measurement": "Activity", "setting": "[1]", "value": "tde"}, {"measurement": "Activity", "setting": "[2]", "value": "<40", "unit": "%"}, {"measurement": "Activity", "setting": "[3]", "value": "Active"}, {"measurement": "Activity", "setting": "[4]", "value": "<20", "unit": "%"}, {"measurement": "Activity", "setting": "[5]", "value": "tde"}, {"measurement": "Activity", "setting": "[6]", "value": "inactive"}, {"measurement": "Kb", "setting": "[7]", "value": 2.45, "unit": "µM"}, {"measurement": "Activity", "setting": "[8]", "value": "tde"}, {"measurement": "Activity", "setting": "[9]", "value": "inactive"}, {"measurement": "Activity", "setting": "[10]", "value": "Active"}, {"measurement": "Activity", "setting": "[11]", "value": "inactive"}, {"measurement": "Activity", "setting": "[12]", "value": "tde"}]}
